Tests used:
TLR8 = target: T1, TLR8 (Homo sapiens, UniProt Q9NR97); experiment: Inhibition of R848-induced signaling in HEK-Blue hTLR8 cell line (Quanti-Blue); format: cell-based; conditions: HEK-Blue hTLR8 cell line; normalized, ligand+DMSO = 100% activity, untreated = 0%
T1 construct: host or cells: HEK-Blue hTLR8 (HEK293-derived SEAP reporter cells)
T1 sequence (Q9NR97 27-1041): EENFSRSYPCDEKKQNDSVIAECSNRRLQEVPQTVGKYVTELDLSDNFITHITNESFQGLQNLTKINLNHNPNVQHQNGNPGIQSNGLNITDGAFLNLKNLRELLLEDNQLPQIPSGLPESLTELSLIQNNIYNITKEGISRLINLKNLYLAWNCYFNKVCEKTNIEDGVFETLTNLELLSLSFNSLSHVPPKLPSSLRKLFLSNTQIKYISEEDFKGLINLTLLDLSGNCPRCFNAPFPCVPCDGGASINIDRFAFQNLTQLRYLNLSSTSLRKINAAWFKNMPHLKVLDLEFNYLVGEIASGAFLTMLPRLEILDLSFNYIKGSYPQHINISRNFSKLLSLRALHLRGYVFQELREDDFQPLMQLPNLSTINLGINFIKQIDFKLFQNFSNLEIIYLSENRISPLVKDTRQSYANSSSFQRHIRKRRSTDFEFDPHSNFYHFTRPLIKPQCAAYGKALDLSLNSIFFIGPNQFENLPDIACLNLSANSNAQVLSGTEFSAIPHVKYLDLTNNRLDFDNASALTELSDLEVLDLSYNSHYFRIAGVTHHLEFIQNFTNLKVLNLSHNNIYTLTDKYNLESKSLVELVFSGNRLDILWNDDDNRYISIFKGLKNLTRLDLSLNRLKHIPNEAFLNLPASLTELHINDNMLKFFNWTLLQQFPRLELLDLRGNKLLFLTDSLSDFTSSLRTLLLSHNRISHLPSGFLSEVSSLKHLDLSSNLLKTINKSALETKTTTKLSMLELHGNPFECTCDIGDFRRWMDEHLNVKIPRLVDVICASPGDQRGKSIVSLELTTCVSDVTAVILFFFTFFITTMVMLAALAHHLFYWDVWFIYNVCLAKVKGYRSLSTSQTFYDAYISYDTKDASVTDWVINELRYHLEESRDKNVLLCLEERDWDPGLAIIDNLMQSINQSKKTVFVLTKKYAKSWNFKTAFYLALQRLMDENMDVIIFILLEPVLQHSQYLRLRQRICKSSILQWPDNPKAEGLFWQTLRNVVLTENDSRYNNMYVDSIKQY
Method: (§1) HEK Blue hTLR8 cells or HEK Blue hTLR7 cells were cultured in DMEM medium supplemented with 10% fetal bovine serum, penicillin (100 U/mL) and streptomycin ([…]). Thereafter, cells were seeded in 96-well plate (45,000 cells per well), and were cultured for 24 hours in a humidified incubator (37° C., 5% CO2).
After 24 hours, the supernatant and suspending cells were aspirated and replaced with fresh serum-free DMEM.
(§2) After 24 hours, 50 μL of the medium was aspirated from each well and then added to a new 96-well plate, followed by the addition of 50 μL of Quanti-Blue in each well and the incubation at 37° C. in darkness. Changes in color would occur in the […] within 60 minutes, and the absorbance was measured at 620 nm by using the multi-mode plate reader Vrioskan Flash. Inhibition rate (%)=[R848 (OD620)−Compound (OD620)]/[R848 (OD620)−Control (OD620)]×100%. Among these, the control group was only added with the same amount of cells. Finally, the software Prism 6.0 was utilized to plot a graph and calculate IC50 values. Or, the activity of the cells treated with ligand and DMSO was defined as 100% activity, and the activity of the untreated cells was defined as 0% activity.

TLR7 = target: T2, TLR7 (Homo sapiens, UniProt Q9NYK1); experiment: Inhibition of R848-induced signaling in HEK-Blue hTLR7 cell line (Quanti-Blue); format: cell-based
T2 construct: host or cells: HEK-Blue hTLR7 (HEK293-derived SEAP reporter cells)
T2 sequence (Q9NYK1 27-1049): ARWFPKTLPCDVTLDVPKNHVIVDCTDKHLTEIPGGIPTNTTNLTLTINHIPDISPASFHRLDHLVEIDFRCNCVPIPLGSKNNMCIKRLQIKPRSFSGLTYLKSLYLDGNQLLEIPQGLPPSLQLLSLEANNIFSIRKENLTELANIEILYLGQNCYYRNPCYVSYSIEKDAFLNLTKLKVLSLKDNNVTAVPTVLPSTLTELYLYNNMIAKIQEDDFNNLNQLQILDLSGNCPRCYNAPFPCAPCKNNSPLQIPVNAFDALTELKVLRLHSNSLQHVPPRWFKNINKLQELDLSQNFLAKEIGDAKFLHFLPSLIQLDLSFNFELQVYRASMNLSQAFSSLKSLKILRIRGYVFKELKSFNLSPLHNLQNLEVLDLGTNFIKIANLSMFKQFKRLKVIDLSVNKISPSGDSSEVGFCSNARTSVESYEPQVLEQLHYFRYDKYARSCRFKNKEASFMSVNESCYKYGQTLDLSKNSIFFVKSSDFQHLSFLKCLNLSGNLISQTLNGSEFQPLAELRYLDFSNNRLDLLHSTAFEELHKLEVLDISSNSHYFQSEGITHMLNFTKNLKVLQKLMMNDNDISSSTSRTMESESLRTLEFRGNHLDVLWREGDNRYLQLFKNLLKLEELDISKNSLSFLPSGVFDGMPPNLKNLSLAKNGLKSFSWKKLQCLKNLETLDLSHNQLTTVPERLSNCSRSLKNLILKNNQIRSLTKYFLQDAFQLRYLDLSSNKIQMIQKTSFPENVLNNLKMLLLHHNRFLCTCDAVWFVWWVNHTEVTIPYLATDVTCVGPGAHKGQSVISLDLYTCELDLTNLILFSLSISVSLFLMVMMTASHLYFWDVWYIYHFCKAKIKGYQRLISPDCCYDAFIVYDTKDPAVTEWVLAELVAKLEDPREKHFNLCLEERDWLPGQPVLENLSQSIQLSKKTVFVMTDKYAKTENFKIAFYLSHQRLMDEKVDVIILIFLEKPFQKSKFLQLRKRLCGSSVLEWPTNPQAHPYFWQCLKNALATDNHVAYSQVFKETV
Method: as §1
After 24 hours, the supernatant and suspending cells were aspirated and replaced with fresh serum-free DMEM. Cells were treated with 1 μg/mL of R848 (agonist of TLR7/8) or 5 μg/mL of ssRNA40/LyoVec or 5 μg/mL of ORN06/LyoVec (InvivoGen) and compounds with specified concentrations, and were placed in a humidified incubator (37° C., 5% CO2) for co-culture.
as §2

HEK-Blue hTLR8 cell line = experiment: Toxicity test of compounds (CCK-8 cell viability); format: cell-based, human; design: key to WST1 (normalized toxicity effect): viability relative to control well (background-subtracted OD), 1 = control; conditions: normalized cell viability, HEK-Blue cell lines
Method: In the 96-well plate used for the above-mentioned activity test of compounds (remaining 50 μL of culture medium containing cells), 5 μL of CellCountingKit-8 (CCK-8) Supermix was added to each well. Note that the introduction of air bubbles into the wells should be avoided since the air bubbles would interfere with the detection of OD value.
The culture plate was incubated in an incubator for 1 to 4 hours,
The edge of the 96-well plate could be tapped gently before reading the plate, and then the absorbance at 450 nm was measured by using the multi-mode plate reader.
Cell viability (%) was determined using the following formula: cell viability (%)=([Compound well ([…])−Background well (OD450)]/[Control well ([…])−Background well (OD450)])×100%. Among these, the background well was only added with the medium and CCK-8 reagent, the control well was only added with the medium, cells, R848 and CCK-8, and the compound wells were added with the medium, cells, R848, compounds in different concentrations, and CCK-8.

Remaining R848-induced TLR8 signaling (normalized activity; ligand+DMSO = 1, untreated = 0) (TLR8)	TLR7 (normalized inhibitory effect on R848-induced signaling) (TLR7)	SMILES	WST1 (normalized toxicity effect) (HEK-Blue hTLR8 cell line)
1.0 ± 0.2	0.9 ± 0.2	CCOCc1nc(CO)c(-c2ccccc2)n1CC(C)(C)O [Compound 43, 1-[2-(ethoxymethyl)-4-(hydroxymethyl)-5-phenyl-1H-imidazole-1-yl]-2-methylpropan-2-ol]	0.8 ± 0.1
0.8 ± 0.2	0.9 ± 0.1	CCOCc1nc(C)c(-c2ccccc2)n1CC(C)(C)O [Compound 45, 1-[2-(ethoxymethyl)-4-methyl-5-phenyl-1H-imidazole-1-yl]-2-methylpropan-2-ol]	0.8 ± 0.3
0.9 ± 0.1	0.9 ± 0.2	CCOCc1nc(I)c(-c2ccc(C)cc2)n1CC(C)(C)O [Compound 64, 1-(2-(ethoxymethyl)-4-iodo-5-(p-tolyl)-1H-imidazole-1-yl)-2-methylpropan-2-ol]	1.1 ± 0.1
0.9 ± 0.2	0.7 ± 0.1	CCOCc1nc(C(C)C)c(-c2ccccc2)n1CC(C)(C)O [Compound 48, 1-[2-(ethoxymethyl)-5-phenyl-4-(prop-2-yl)-1H-imidazole-1-yl]-2-methylpropan-2-ol]	0.8 ± 0.3
1.2 + 0.2	1.1 ± 0.2	CCOCc1nc(C=O)c(-c2ccccc2)n1CC(C)(C)O [Compound 41, 2-(ethoxymethyl)-1-(2-hydroxy-2-methylpropyl)-5-phenyl-1H-imidazole-4-carbaldehyde]	0.7 ± 0.2
0.3 ± 0.2	0.8 ± 0.2	CCOCc1nc(Br)c(-c2ccccc2)n1CC(C)(C)O [Compound 52, 1-[4-bromo-2-(ethoxymethyl)-5-phenyl-1H-imidazole-1-yl]-2-methylpropan-2-ol]	1.1 ± 0.3
0.01 ± 0.01	0.1 ± 0.2	CCOCc1nc(I)c(-c2ccccc2)n1CC(C)C [Compound 58, 2-(ethoxymethyl)-4-iodo-1-(2-methylpropyl)-5-phenyl-1H-imidazole]	0.3 ± 0.2
0.5 ± 0.2	0.6 ± 0.2	CCOCc1nc(Cl)c(-c2ccccc2)n1CC(C)C [Compound 56, 4-chloro-2-(ethoxymethyl)-1-(2-methylpropyl)-5-phenyl-1H-imidazole]	0.7 ± 0.2
0.9 ± 0.2	0.9 ± 0.2	CCOCc1nc(C(=O)O)c(-c2ccccc2)n1CC(C)(C)O [Compound 54, 2-(ethoxymethyl)-1-(2-hydroxy-2-methylpropyl)-5-phenyl-1H-imidazole-4-carboxylic acid]	1.1 ± 0.3
0.06 ± 0.1	0.9 ± 0.1	CCOCc1nc(I)c(-c2cccc3ccccc23)n1CC(C)(C)O [Compound 62, 1-(2-(ethoxymethyl)-4-iodo-5-(naphthalen-1-yl)-1H-imidazole-1-yl)-2-methylpropan-2-ol]	0.8 ± 0.1
0.8 ± 0.1	0.6 ± 0.2	CCOCc1ncc(-c2ccccc2)n1CC(C)C [Compound 55, 2-(ethoxymethyl)-1-(2-methylpropyl)-5-phenyl-1H-imidazole]	0.9 ± 0.3
0.01 ± 0.01	0.9 ± 0.1	CCOCc1nc(I)c(-c2cccc(-c3ccccc3)c2)n1CC(C)(C)O [Compound 61, 1-(5-([1,1′-biphenyl]-3-yl)-2-(ethoxymethyl)-4-iodo-1H-imidazole-1-yl)-2-methylpropan-2-ol]	0.9 ± 0.2
0.9 ± 0.1	0.9 ± 0.2	CCOCc1nc(I)c(-c2ccc3ccccc3c2)n1CC(C)(C)O [Compound 63, 1-(2-(ethoxymethyl)-4-iodo-5-(naphthalen-2-yl)-1H-imidazole-1-yl)-2-methylpropan-2-ol]	1.0 ± 0.1
